From article PMC9228089, “1,5-Benzothiazepine Derivatives: Green Synthesis, In Silico and In Vitro Evaluation as Anticancer Agents” (Molecules, 2022) come the findings set out here.

The structures appear in SMILES notation.

In one data set the test system is L02. Put plainly: MTT cytotoxicity assay, embryonic liver cell line (selective toxicity). It is filed as cell-based. To be noted: for inhibition at 100 µM: L02, human embryonic liver cell line. How it is done:
(§1) HepG-2, and DU-145 human tumor cell lines were grown in DMEM medium supplemented with Glutamax-I and glucose. A pseudo-normal human embryonic liver cell line (L02) was used to study the cytotoxicity of the synthesized compounds. The cell culture medium was supplemented with fetal calf serum (10% v/v), penicillin (100 IU/mL), and streptomycin (100 µg/mL), then preserved at 37 °C.
(§2) A spectrophotometric MTT reagent assay was employed to assess the cytotoxic activity of the synthesized compounds. In brief, the grown cells (approx. 5 × 10^3 count) were placed in each well of a 96-well plate and 100 µL of the culture medium was added along with the synthesized compounds (1–100 µmol/L). The well plate was subjected to incubation for 72 h; later, 10 µL of MTT (5 mg/mL) was added to each well. The well plate was further incubated for 4 h at 37 °C. The resulting insoluble formazan was dissolved by adding sodium dodecyl sulfate (100 µL, 10%) to each well and continuing incubation for an additional 12 h. Later, the 96-well plate was used to measure the absorbance at the 540 nm and 630 nm reference wavelengths using the spectrophotometer. The blank absorbance was treated as a control and the IC50 values were determined by a non-linear regression model with the help of normalized dose-response data acquired via MTT assay.
In general terms: Tetrazolium dyes change colour on reduction, which living cells bring about.

The next data set concerns the target GSK-3β (Homo sapiens, UniProt P49841). Put plainly: GSK-3β inhibitory assay (Kinase-Glo luminescence). To be noted: for inhibition at 50 µM: read-out: % of Inhibition at 50 µM, 50 µM, triplicate.
The next data set deals with DU-145. Put plainly: MTT cytotoxicity assay, prostate cancer cell line. It is filed as cell-based, human. How it is done: as §1, §2
In another data set the test system is Hep G-2. Put plainly: MTT cytotoxicity assay, liver cancer cell line. It is filed as cell-based, human. How it is done:
as §1, §2

GSK-3β, sequence (P49841 whole entry): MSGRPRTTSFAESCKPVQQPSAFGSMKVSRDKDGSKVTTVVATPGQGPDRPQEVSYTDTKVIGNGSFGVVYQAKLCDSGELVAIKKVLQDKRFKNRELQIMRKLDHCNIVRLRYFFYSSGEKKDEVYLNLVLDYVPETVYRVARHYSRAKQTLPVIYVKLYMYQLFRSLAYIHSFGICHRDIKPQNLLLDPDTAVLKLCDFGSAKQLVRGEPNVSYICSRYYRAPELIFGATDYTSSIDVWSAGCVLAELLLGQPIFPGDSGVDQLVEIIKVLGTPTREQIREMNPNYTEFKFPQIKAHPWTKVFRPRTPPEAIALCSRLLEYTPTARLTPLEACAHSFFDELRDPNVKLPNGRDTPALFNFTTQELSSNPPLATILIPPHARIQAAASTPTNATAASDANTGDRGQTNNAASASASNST
Protocol for GSK-3β: Briefly, the assay procedure was as follows. […] The activity was determined by the difference between total and consumed ATP. The inhibition activity was determined using the maximal activity in the absence of the inhibitor and the maximal inhibition in the presence of the reference drug. IC50 values were determined using the GraphPad Prism 4.0 tool (GraphPad Software Inc., San Diego, CA, USA).

The IC50 is the midpoint of a concentration-inhibition curve. A high value points to lower potency. Regarding `Cc1ccc2c(c1)N=C(c1cc(Br)cc(Br)c1O)CC(c1ccc(N(C)C)cc1)S2` (stereo not drawn) [2g, 2,4-dibromo-6-(2-(4-(dimethylamino)phenyl)-7-methyl-2,3-dihydrobenzo[b][1,4]hiazepine-4-yl)phenol], the “% Inhibition (100 µM) L02” value in the data set on L02 (human embryonic liver cell line) came to 15.56 ± 1.29%. Moreover, on GSK-3β, the “% of Inhibition at 50 µM” value is on record as 87.62 ± 2.54%. For the same compound, the IC50 in the data set on DU-145 (72 h) is 28.53 ± 0.14 µM; with Hep G-2 (72 h), 8.32 ± 0.16 µM.
What is called inhibition is the percentage by which the read-out fell short of the control. A word on the melting point: it is the temperature, or range, at which the solid turns liquid. Compound `Cc1ccc2c(c1)N=C(c1cc(Cl)cc(I)c1O)CC(c1ccc(N(C)C)cc1)S2` (stereo not drawn) [2d, 4-chloro-2-(2-(4-(dimethylamino)phenyl)-7-methyl-2,3-dihydrobenzo[b][1,4]thiazepine-4-yl)-6-iodophenol] displayed a melting point of 244 to 246 °C. Moreover, the inhibition at 100 µM with L02 was 31.4 ± 1.14%. Further, the inhibition at 50 µM on GSK-3β worked out at 61.1 ± 1.98%. In addition, half-maximal inhibition with DU-145 (Homo sapiens, DU-145, 72 h) (IC50) required 36.17 ± 0.14 µM. In the data set on Hep G-2 (Homo sapiens, HepG2, 72 h), this compound gave an IC50 of 7.89 ± 0.22 µM.
In the same order, the values of `Cc1ccc2c(c1)N=C(c1cc(Cl)cc(Br)c1O)CC(c1ccc(N(C)C)cc1)S2` (stereo not drawn) [2f, 2-bromo-4-chloro-6-(2-(4-(dimethylamino)phenyl)-7-methyl-2,3-dihydrobenzo [b][1,4]thiazepin-4-yl)phenol] are 244 to 246 °C, 28.4 ± 1.18%, 89.7 ± 1.65%, 24.58 ± 0.13 µM and 4.38 ± 0.11 µM.
In the same order, the values of `Cc1ccc2c(c1)N=C(c1cc(C)cc(I)c1O)CC(c1ccc(N(C)C)cc1)S2` (stereo not drawn) [2b, 2-(2-(4-(dimethylamino)phenyl)-7-methyl-2,3-dihydrobenzo[b][1,4]thiazepin-4-yl)-6-iodo-4-methylphenol] are 218 to 220 °C, 19.6 ± 0.97%, 60.7 ± 2.85%, 41.34 ± 0.12 µM and 8.26 ± 0.26 µM.
In turn, `Cc1ccc2c(c1)N=C(c1cc(Cl)cc(Cl)c1O)CC(c1ccc(N(C)C)cc1)S2` (stereo not drawn) [2c, 2,4-dichloro-6-(2-(4-(dimethylamino)phenyl)-7-methyl-2,3-dihydrobenzo[b][1,4]thiazepin-4-yl)phenol] gave a melting point of 222 to 224 °C. This compound registered an inhibition at 100 µM in the data set on L02 of 19.3 ± 1.25%. Besides, on GSK-3β, the inhibition at 50 µM is over 90%. In the data set with DU-145 (Homo sapiens, DU-145, 72 h), this compound showed an IC50 of 20.45 ± 0.19 µM. Besides, the IC50 in the data set on Hep G-2 (Homo sapiens, HepG2, 72 h) turned out to be 3.29 ± 0.15 µM.
On to `Cc1ccc2c(c1)N=C(c1cc(I)cc(I)c1O)CC(c1ccc(N(C)C)cc1)S2` (stereo not drawn) [2a, 2-(2-(4-(dimethylamino)phenyl)-7-methyl-2,3-dihydrobenzo[b][1,4]thiazepin-4-yl)-4,6-diiodophenol], for which the melting point lay in the range of 230 to 232 °C. The same compound yielded an inhibition at 100 µM in the data set with L02 of 28.2 ± 1.68%. In addition, at GSK-3β, the inhibition at 50 µM was determined as 62.4 ± 2.21%. In the data set on DU-145 (Homo sapiens, DU-145, 72 h), the IC50 is 32.74 ± 0.13 µM. This compound came in with an IC50 in the data set with Hep G-2 (Homo sapiens, HepG2, 72 h) of 7.52 ± 0.13 µM.
The like results for `Cc1ccc2c(c1)N=C(c1cc(C)cc(Br)c1O)CC(c1ccc(N(C)C)cc1)S2` (stereo not drawn) [2e, 2-bromo-6-(2-(4-(dimethylamino)phenyl)-7-methyl-2,3-dihydrobenzo[b][1,4]thiazepine-4-yl)-4-methylphenol] were, in that order, 244 to 246 °C, 52.2 ± 1.42%, 66.6 ± 2.51%, 37.52 ± 0.27 µM and 6.87 ± 0.15 µM.
For the compound `Cc1ccc2c(c1)N=C(c1cc(Br)cc(I)c1O)CC(c1ccc(N(C)C)cc1)S2` (stereo not drawn) [2h, 4-bromo-2-(2-(4-(dimethylamino)phenyl)-7-methyl-2,3-dihydrobenzo[b][1,4]thiazepin-4-yl)-6-iodophenol], the melting point was in the range of 244 to 246 °C. Besides, the inhibition at 100 µM in the data set with L02 was 46.1 ± 1.05%. Moreover, on GSK-3β, the inhibition at 50 µM stood at 61.9 ± 3.47%. In the data set with DU-145 (Homo sapiens, DU-145, 72 h), this compound came in with an IC50 of 36.8 ± 0.18 µM. In addition, in the data set on Hep G-2 (Homo sapiens, HepG2, 72 h), the IC50 amounted to 8.56 ± 0.14 µM.
For the compound `CN(Cc1cnc2nc(N)nc(N)c2n1)c1ccc(C(=O)N[C@@H](CCC(=O)O)C(=O)O)cc1` [Methotrexate, reference compound], the inhibition at 100 µM in the data set with L02 turned out to be 78.2 ± 1.86%. For the same compound, the IC50 with DU-145 (Homo sapiens, DU-145, 72 h) came to 21.96 ± 0.15 µM; in the data set with Hep G-2 (Homo sapiens, HepG2, 72 h) it was 4.68 ± 0.17 µM.
